Consider eleven compounds from patent publication US7825112B2, “2-carbamide-4-phenylthiazole derivatives, preparation thereof and therapeutic use thereof” (sanofi-aventis, priority 2006, dated 2010).

The target of one series is T1, human CCR2b receptor (Homo sapiens, UniProt P41597).
T1 construct: host or cells: CHO-K1
T1 sequence (P41597 1-360 isoform P41597-2): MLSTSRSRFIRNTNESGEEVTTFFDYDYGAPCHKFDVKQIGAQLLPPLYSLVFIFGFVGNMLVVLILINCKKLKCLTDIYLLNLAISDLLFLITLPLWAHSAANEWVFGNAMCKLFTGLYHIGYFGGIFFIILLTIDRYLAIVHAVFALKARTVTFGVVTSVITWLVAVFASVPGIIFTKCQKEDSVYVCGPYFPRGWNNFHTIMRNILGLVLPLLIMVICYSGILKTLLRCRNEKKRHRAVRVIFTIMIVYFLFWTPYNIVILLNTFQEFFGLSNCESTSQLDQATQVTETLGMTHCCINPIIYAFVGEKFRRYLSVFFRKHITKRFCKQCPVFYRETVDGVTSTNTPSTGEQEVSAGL
Nature of the series: [125I]-MCP-1 binding displacement on CHO-K1-CCR2B cells (inhibiting activity on cells expressing the human CCR2b receptor). To be noted: iodinated MCP-1 0.1 nM, 1 h 30 minutes at ambient temperature, read-out: Cl50 (concentration which inhibited 50% of the activity of the CCR2b receptor). As to the method: The inhibiting activity of the compounds according to the invention was measured on cells expressing the human CCR2b receptor. The concentration of natural hMCP-1 agonist which inhibited 50% (Cl50) of the activity of the CCR2b receptor was 0.57 nM.
The following are brought into contact for 1 h 30 minutes at ambient temperature, in Millipore GF/B filter plates (ref. MAFBNOB 10 or 50): 50 μl of compound at 3×10^−5 M in the reaction buffer or cold MCP-1 range ((R & D Systems). Recombinant human MCP-1) (final concentration of compound: 10^−5 M), and 50 μl of iodinated MCP-1 ([^125 l]-MCP-1 human recombinant Bolton+Hunter labelled (Amersham)) at 0.3 nM in distilled water (final concentration of iodinated MCP-1: 0.1 nM), and 50 μl of CHO-K1-CCR2B cells (obtained from Euroscreen Brussels, Belgium) at 6×10^5 cells/ml (final concentration in the reaction buffer: […]). The filters were saturated beforehand with 100 μl of PEI at a final concentration of 0.0125% in PBS, for 72 h at 4° C., and the PEI was removed by filtration. The content of the wells was filtered and washed twice with the reaction buffer, and the filters were left to dry overnight. The following day, 20 μl/well of “Wallac Optiphase Super Mix” scintillant were dispensed. The filters were impregnated for 1 to 2 h and then counted with Trilux Iodine 125 for 1 min.
Reaction buffer=PBS buffer, […], 1 mM CaCl2, 5 mM MgCl2, 0.5% fatty acid-free BSA, adjusted to pH 7.4.

`COc1ccc(C2CCCCC2)cc1-c1csc(NC(=O)N2CCN(CC3CCCCN3S(=O)(=O)c3cnn(C)c3C)CC2)n1` (stereo not shown) [compound 45, 4-[1-(1,5-dimethyl-1H-pyrazole-4-sulphonyl)piperidin-2-ylmethyl]piperazine-1-carboxylic acid [4-(5-cyclohexyl-2-methoxyphenyl)thiazol-2-yl]amide]: the IC50 on human CCR2b receptor turned out to be 73 nM.

Compound `COc1ccc(C2CCCCC2)cc1-c1csc(NC(=O)N2CCN(CC3CCOC(C)(C)C3)CC2)n1` (stereo not shown) [compound 40, 4-(2,2-dimethyltetrahydropyran-4-ylmethyl)piperazine-1-carboxylic acid [4-(5-cyclohexyl-2-methoxyphenyl)thiazol-2-yl]amide] had a melting point of 98 °C. Further, the IC50 at human CCR2b receptor was 82 nM.

Consider `COc1ccc(C2CCCCC2)cc1-c1csc(NC(=O)N2CCN(C3CCS(=O)(=O)CC3)CC2)n1` [compound 33, 4-(1,1-dioxohexahydro-1λ^6-thiopyran-4-yl)piperazine-1-carboxylic acid [4-(5-cyclohexyl-2-methoxyphenyl)thiazol-2-yl]amide], for which the melting point was 204 °C. The IC50 on human CCR2b receptor came to 20 nM.

In the case of `COc1ccc(C2CCCCC2)cc1-c1csc(NC(=O)N2CCN(C(=O)[C@@H]3CCCN(C4CC4)C3)CC2)n1` [compound 22, 4-((R)-1-cyclopropylpiperidine-3-carbonyl)piperazine-1-carboxylic acid [4-(5-cyclohexyl-2-methoxyphenyl)thiazol-2-yl]amide], the IC50 at human CCR2b receptor was 4 nM.

For the compound `CCCCc1ccc(OCC)c(-c2csc(NC(=O)N3CCN(C[C@@H]4CCCN(C5CC5)C4)CC3)n2)c1` [compound 23, 4-((S)-1-cyclopropylpiperidin-3-ylmethyl)piperazine-1-carboxylic acid [4-(5-butyl-2-ethoxyphenyl)thiazol-2-yl]amide], the melting point was 86 °C. In addition, the IC50 at human CCR2b receptor came out at 8 nM.

Take `COc1ccc(C2CCCCC2)cc1-c1csc(NC(=O)N2CCN(C[C@@H]3CCCN(S(=O)(=O)C4CC4)C3)CC2)n1` [compound 29, 4-((S)-1-cyclopropanesulphonylpiperidin-3-ylmethyl)piperazine-1-carboxylic acid [4-(5-cyclohexyl-2-methoxyphenyl)thiazol-2-yl]amide]: the melting point came to 114 °C. Besides, the IC50 at human CCR2b receptor amounted to 50 nM.

The compound `COc1ccc(C2CCCCC2)cc1-c1csc(NC(=O)N2CCN(C[C@@H]3CCCN(CCCCC(=O)O)C3)CC2)n1` [compound 9, 5-((R)-3-{4-[4-(5-cyclohexyl-2-methoxyphenyl)thiazol-2-ylcarbamoyl]piperazin-1-ylmethyl}piperidin-1-yl)pentanoic acid] registered a melting point of 153 °C. Further, on human CCR2b receptor, the IC50 came to 4 nM.

As to “hMCP-1: human monocyte chemotactic protein, CC chemokine group, natural agonist of the CCR2b receptor [reference compound]”, in the series with human CCR2b receptor, the IC50 turned out to be 0.57 nM.

On to `COc1ccc(C2CCCCC2)cc1-c1csc(NC(=O)N2CCN(C3CCOCC3)CC2)n1` [Compound No 11, 4-(tetrahydropyran-4-yl)piperazine-1-carboxylic acid [4-(5-cyclohexyl-2-methoxyphenyl)thiazol-2-yl]amide], for which the melting point came to 226 °C. In addition, the IC50 on human CCR2b receptor was determined as 20 nM.

Consider `COc1ccc(C2CCCCC2)cc1-c1csc(NC(=O)N2CCN(C3CCCCC3)CC2)n1` [compound 10, 4-cyclohexylpiperazine-1-carboxylic acid [4-(5-cyclohexyl-2-methoxyphenyl)thiazol-2-yl]amide], for which the melting point was 110 °C. Moreover, at human CCR2b receptor, the IC50 came out at 53 nM.

The compound `COc1ccc(C2CCCCC2)cc1-c1csc(NC(=O)N2CCN(C3CCSCC3)CC2)n1` [compound 41, 4-(tetrahydrothiopyran-4-yl)piperazine-1-carboxylic acid [4-(5-cyclohexyl-2-methoxyphenyl)thiazol-2-yl]amide] had a melting point of 118 °C. Besides, the IC50 at human CCR2b receptor came to 39 nM.

What is called melting point is the temperature of the solid-liquid transition.
